Measurements: patent publication US6737383B1, “Herbicidal oxadiazolidines” (priority 1999, dated 2004)

Key:
[1] = system: sugar beet; assay: Test B pre/postemergence sugar beet; format: in vivo, Beta vulgaris
Method in brief: (§1)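 Test chemicals in a non-phytotoxic solvent mixture with surfactant were sprayed preemergence onto planted seeds and postemergence onto plants 2 to 18 cm tall (1- to 4-leaf stage). After twelve to sixteen days in a greenhouse, injury was visually rated against untreated controls from 0 (no effect) to 10 (complete control).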

[2] = system: rice; assay: Test B flood test rice; format: in vivo, Oryza sativa
Method in brief: (§2)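 Plants were grown to the 2-leaf stage before treatment with test chemical, then held in a greenhouse for twelve to sixteen days. Injury was visually rated against untreated controls on a 0–10 scale, where 0 is no effect and 10 is complete control.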

[3] = system: smallflower flatsedge; assay: Test B flood test smallflower flatsedge; format: in vivo, Cyperus difformis
Method in brief: as §2

[4] = system: purple nutsedge; assay: Test B pre/postemergence purple nutsedge; format: in vivo, Cyperus rotundus
Method in brief: as §1

[5] = system: giant foxtail; assay: Test B pre/postemergence giant foxtail; format: in vivo, Setaria faberii
Method in brief: as §1

[6] = system: duck salad; assay: Test B flood test duck salad; format: in vivo, Heteranthera limosa
Method in brief: as §2

[7] = system: soybean; assay: Test B pre/postemergence soybean; format: in vivo, Glycine max
Method in brief: as §1

[8] = system: rape; assay: Test B pre/postemergence rape; format: in vivo, Brassica napus
Method in brief: as §1

[9] = system: cocklebur; assay: Test B pre/postemergence cocklebur; format: in vivo, Xanthium strumarium
Method in brief: as §1

[10] = system: blackgrass; assay: Test B pre/postemergence blackgrass; format: in vivo, Alopecurus myosuroides
Method in brief: as §1

[11] = system: velvetleaf; assay: Test B pre/postemergence velvetleaf; format: in vivo, Abutilon theophrasti
Method in brief: as §1

[12] = system: wild oat; assay: Test B pre/postemergence wild oat; format: in vivo, Avena fatua
Method in brief: as §1

[13] = system: morningglory; assay: Test B pre/postemergence morningglory; format: in vivo, Ipomoea hederacea
Method in brief: as §1

[14] = system: bamyardgrass; assay: Test B flood test barnyardgrass; format: in vivo, Echinochloa crus-galli
Method in brief: as §2

[15] = system: wheat; assay: Test B pre/postemergence wheat; format: in vivo, Triticum aestivum
Method in brief: as §1

[16] = system: pigweed; assay: Test B pre/postemergence pigweed; format: in vivo, Amaranthus retroflexus
Method in brief: as §1

[17] = Postemergence, Rate 250 g/ha, scale 0 to 10
[18] = Postemergence, Rate 500 g/ha, scale of 0 to 10 where 0 is no effect and 10 is complete control
[19] = Preemergence, Rate 62 g/ha, scale of 0 to 10 where 0 is no effect and 10 is complete control
[20] = Preemergence, Rate 125 g/ha, scale of 0 to 10 where 0 is no effect and 10 is complete control
[21] = Preemergence, Rate 250 g/ha, scale 0 to 10, 0 is no effect, 10 is complete control
[22] = Preemergence, Rate 500 g/ha, scale 0 to 10, 0 is no effect, 10 is complete control
[23] = Rate 62 g/ha, Postemergence, scale 0 to 10 (0 no effect, 10 complete control)
[24] = Rate 125 g/ha, Postemergence, scale 0 to 10, 0 is no effect, 10 is complete control
[25] = Rate 62 g/ha, flood test species, Pre-emergence, visual evaluation after twelve to sixteen days
[26] = Rate 125 g/ha, under heading Pre-emergence, flood test species, visual evaluation after twelve to sixteen days
[27] = Rate 250 g/ha, Pre-emergence (flood test species), scale 0 to 10, 0 is no effect, 10 is complete control
[28] = Rate 500 g/ha, Pre-emergence, flood test species, scale 0 to 10 (0 no effect, 10 complete control)

Which results are given for `CC(C)N(C(=O)n1oc(=O)n(CCC#N)c1=O)c1ccc(Cl)cc1` [Compound 444]?
Sugarbeets plant response rating [1, 17]: 0; Sugarbeets plant response rating [1, 18]: 3; Plant response rating, Sugarbeets [1, 19]: 0; Plant response rating, Sugarbeets [1, 20]: 0; Sugarbeets plant response rating [1, 21]: 0; Sugarbeets plant response rating [1, 22]: 0; Sugarbeets plant response rating [1, 23]: 0; Sugarbeets plant response rating [1, 24]: 0; Plant response rating, Rice (0 to 10 scale, 0 is no effect, 10 is complete control) [2, 25]: 0; Rice plant response rating (0 to 10 scale, 0 is no effect, 10 is complete control) [2, 26]: 0; Rice plant response rating [2, 27]: 0; Rice plant response rating [2, 28]: 0; Plant response rating, S. Flatsedge (0 to 10 scale, 0 is no effect, 10 is complete control) [3, 25]: 0; S. Flatsedge plant response rating (0 to 10 scale, 0 is no effect, 10 is complete control) [3, 26]: 0; S. Flatsedge plant response rating [3, 27]: 0; S. Flatsedge plant response rating [3, 28]: 0; Nutsedge plant response rating [4, 17]: 0; Nutsedge plant response rating [4, 18]: 0; Plant response rating, Nutsedge [4, 19]: 0; Plant response rating, Nutsedge [4, 20]: 0; Nutsedge plant response rating [4, 21]: 0; Nutsedge plant response rating [4, 22]: 0; Nutsedge plant response rating [4, 23]: 0; Nutsedge plant response rating [4, 24]: 0; Giant foxtail plant response rating [5, 17]: 8; Giant foxtail plant response rating [5, 18]: 9; Plant response rating, Giant foxtail [5, 19]: 9; Plant response rating, Giant foxtail [5, 20]: 9; Giant foxtail plant response rating [5, 21]: 10; Giant foxtail plant response rating [5, 22]: 10; Giant foxtail plant response rating [5, 23]: 4; Giant foxtail plant response rating [5, 24]: 7; Plant response rating, Ducksalad (0 to 10 scale, 0 is no effect, 10 is complete control) [6, 25]: 0; Ducksalad plant response rating (0 to 10 scale, 0 is no effect, 10 is complete control) [6, 26]: 0; Ducksalad plant response rating [6, 27]: 0; Ducksalad plant response rating [6, 28]: 0; Soybean plant response rating [7, 17]: 2; Soybean plant response rating [7, 18]: 2; Plant response rating, Soybean [7, 19]: 0; Plant response rating, Soybean [7, 20]: 0; Soybean plant response rating [7, 21]: 2; Soybean plant response rating [7, 22]: 3; Soybean plant response rating [7, 23]: 1; Soybean plant response rating [7, 24]: 1; Rape plant response rating [8, 17]: 0; Rape plant response rating [8, 18]: 0; Plant response rating, Rape [8, 19]: 0; Plant response rating, Rape [8, 20]: 0; Rape plant response rating [8, 21]: 0; Rape plant response rating [8, 22]: 2; Rape plant response rating [8, 23]: 0; Rape plant response rating [8, 24]: 0; Cocklebur plant response rating [9, 17]: 0; Cocklebur plant response rating [9, 18]: 0; Plant response rating, Cocklebur [9, 19]: 0; Plant response rating, Cocklebur [9, 20]: 0; Cocklebur plant response rating [9, 21]: 0; Cocklebur plant response rating [9, 22]: 0; Cocklebur plant response rating [9, 23]: 0; Cocklebur plant response rating [9, 24]: 0; Blackgrass plant response rating [10, 17]: 5; Blackgrass plant response rating [10, 18]: 7; Plant response rating, Blackgrass [10, 19]: 0; Plant response rating, Blackgrass [10, 20]: 0; Blackgrass plant response rating [10, 21]: 8; Blackgrass plant response rating [10, 22]: 8; Blackgrass plant response rating [10, 23]: 0; Blackgrass plant response rating [10, 24]: 2; Velvetleaf plant response rating [11, 17]: 0; Velvetleaf plant response rating [11, 18]: 3; Plant response rating, Velvetleaf [11, 19]: 0; Plant response rating, Velvetleaf [11, 20]: 0; Velvetleaf plant response rating [11, 21]: 0; Velvetleaf plant response rating [11, 22]: 4; Velvetleaf plant response rating [11, 23]: 0; Velvetleaf plant response rating [11, 24]: 0; Wild oats plant response rating [12, 17]: 0; Wild oats plant response rating [12, 18]: 2; Plant response rating, Wild oats [12, 19]: 0; Plant response rating, Wild oats [12, 20]: 0; Wild oats plant response rating [12, 21]: 0; Wild oats plant response rating [12, 22]: 4; Wild oats plant response rating [12, 23]: 0; Wild oats plant response rating [12, 24]: 0; Morningglory plant response rating [13, 17]: 1; Morningglory plant response rating [13, 18]: 3; Plant response rating, Morningglory [13, 19]: 0; Plant response rating, Morningglory [13, 20]: 0; Morningglory plant response rating [13, 21]: 0; Morningglory plant response rating [13, 22]: 0; Morningglory plant response rating [13, 23]: 0; Morningglory plant response rating [13, 24]: 0; Plant response rating, Barnyardgrass (0 to 10 scale, 0 is no effect, 10 is complete control) [14, 25]: 0; Barnyardgrass plant response rating (0 to 10 scale, 0 is no effect, 10 is complete control) [14, 26]: 0; Barnyardgrass plant response rating [14, 27]: 0; Barnyardgrass plant response rating [14, 28]: 0; Wheat plant response rating [15, 17]: 0; Wheat plant response rating [15, 18]: 0; Plant response rating, Wheat [15, 19]: 0; Plant response rating, Wheat [15, 20]: 0; Wheat plant response rating [15, 21]: 0; Wheat plant response rating [15, 22]: 0; Wheat plant response rating [15, 23]: 0; Wheat plant response rating [15, 24]: 0; Redroot pigweed plant response rating [16, 18]: 2; Plant response rating, Redroot pigweed [16, 19]: 10; Plant response rating, Redroot pigweed [16, 20]: 10; Redroot pigweed plant response rating [16, 21]: 10; Redroot pigweed plant response rating [16, 22]: 10; Redroot pigweed plant response rating [16, 23]: 0; Redroot pigweed plant response rating [16, 24]: 2
